The record followed here is patent publication US20250327791A1, “METHODS OF TREATMENT BASED ON PATIENT SPECIFIC CLINICAL TRIAL MODELS AND ASSOCIATED MODELS AND USES” (DUKE UNIVERSITY, priority 2017, published 2025).

Structures are written as SMILES.

Broadly, the IC50 is the concentration that gives 50% inhibition.

The test system of one test is organoid A. The test can be described thus: Organoid cell viability / IC50. In kind it is cell-based. The conditions noted are these: for IC50: organoid A. Here is the method:
(§1) In embodiments organoids were created by embedding single cells in Matrigel on ice and seeding the cells in 48 well plates. After the Matrigel was polymerized for 10 minutes at 37° C. basal culture medium was overlaid containing at least one of the optimized growth factor combinations in FIG. 19.
(§2) ATAC-Seq tests were run to determine which pathways were up and down regulated in the presence of various drugs. […] The effectiveness of oxaliplatin 230, an FGFR1 inhibitor 231, along with oxaliplatin and an FGFR1 inhibitor 234 as cell killers was tested in the organoid as shown in FIG. 23. […] The cell killing potential of oxaliplatin 241, an oxytocin antagonist 243, along with oxaliplatin and an oxytocin antagonist 245 was tested as shown in FIG. 24.

The subject of the next test is organoid B. The test can be described thus: Organoid cell viability / IC50. In kind it is cell-based. On the procedure: as §1, §2
The subject of the next test is organoid C. The test can be described thus: Organoid cell viability / IC50. In kind it is cell-based. Here is the method: as §1, §2
In the next test the test system is CRC247. As to the kind of experiment: High-throughput drug screen, CellTiter-Glo cell viability. In kind it is cell-based, human. The conditions noted are these: CRC247 cell line; 1 μM; 72 hours. On the procedure:
(§3) Unless otherwise noted all experiments were carried out using the following materials and methods which are here presented as examples and not limiting embodiments. All equivalent variants are contemplated as part of the presently disclosed subject matter. An Echo Acoustic Dispenser provided automated liquid handling for drug addition while cell plating was performed by a Thermo Fisher Well Mate and assays used a Clarioscan plate reader. The drugs assayed were stamped to the cell plates immediately prior to cell plating at a final concentration of 1 μM. The drug pre-coated plates were plated with 500-1000 cells/well. 72 hours after cell plating cell viabilities were assessed via a CellTiter-Glo Luminescent Cell Viability Assay.
(§4) In this embodiment matching cells lines 31 and PDXs are created 32. These can be developed as described in the Uronis and Kim papers previously incorporated by reference. Drugs may subsequently be screened using these cell lines 33 the results validated in vivo 34 and RNA-Seq and molecular analysis 35 used. As a non-limiting example, CRC057, CRC119, CRC240, CRC247 15-496, and 16-159 were derived from patient colorectal cancers. It should be understood by those of skill in the art that any suitable type of cancer sample may have been taken. High-throughput drug screens, including 119 FDA-approved drug compounds, were performed using the patient-derived cell lines. Any suitable type of high or low throughput drug screen of any FDA approved or non-FDA approved drug may be performed on the cell lines. […] 88%, 95%, 88, and 89% of CRC119 were killed by docetaxel 42, doxorubicin 41, and the vinca alkaloids vincristine and vinorelbine 43 respectively. 46%, 93%, 63% and 56% of CRC240 were killed by docetaxel 42, doxorubicin 41, and the vinca alkaloids vincristine and vinorelbine 43 respectively. 47% 83%, 46% and 46% of CRC057 were killed by docetaxel 42, doxorubicin 41, and the vinca alkaloids vincristine and vinorelbine 43 respectively. 25%, 70%, 37%, and 33% of CRC247 were killed by docetaxel 42, doxorubicin 41, and the vinca alkaloids vincristine and vinorelbine 43 respectively. […] CRC119 45 and 16-159 46 were sensitive to the standard of care cytotoxic chemotherapeutic agent irinotecan with 43% and 64% of cells killed respectively.

The next test has as its system CRC057. Described as above. In kind it is cell-based, human. The conditions noted are these: CRC057 cell line; 1 μM; 72 hours. On the procedure:
as §3, §4

Another test relates to CRC119. The test is described as above. The conditions noted are these: CRC119 cell line; 1 μM; 72 hours. In kind it is cell-based, human. Here is the method:
as §3, §4

Another test concerns CRC240. The description is as above. In kind it is cell-based, human. The conditions noted are these: CRC240 cell line; 1 μM; 72 hours. Here is the method: as §3, §4
In a further test the test system is 16-159. The description is as above. In kind it is cell-based, human. The conditions noted are these: 16-159 cell line; 1 μM; 72 hours. Here is the method:
as §3, §4

A further test has as its system CRC119 PDX. As to the kind of experiment: PDX studies accompanying the organoid studies (tumor growth inhibition). In kind it is in vivo, mice. The conditions noted are these: 10 mg/kg oxaliplatin or 20 mg/kg irinotecan weekly IP for three weeks. An excerpt: (§5) PDX studies accompanying the organoid studies were developed as described previously and in Uronis J M, Osada T, McCall S, Yang X Y, Mantyh C, Morse M A, et al. Histological and molecular evaluation of patient-derived colorectal cancer explants. PloS one 2012; 7:e38422, and Kim M K, Osada T, Barry W T, Yang X Y, Freedman J A, Tsamis K A, et al. Characterization of an oxaliplatin sensitivity predictor in a preclinical murine model of colorectal cancer. Molecular cancer therapeutics 2012; 11:1500-1509. Both of these references are hereby incorporated in their entirety. 6-8 week old NOD/SCID-beige mice were used and the tumors were measured twice a week as described above. Once tumors reached a size of 250 mm^3 mice were treated with either 10 mg/kg oxaliplatin or 20 mg/kg irinotecan weekly via IP (intraperitoneal injection) for three weeks with saline used as a control. PDX tumor sizes were recorded and one-way ANOVA analysis were carried out as described in the references above to determine TGI (tumor growth inhibition.
(§6) In embodiments, patients undergo biopsy of metastatic cancer, CT of the chest, abdomen and pelvis. In embodiments, drug sensitivity is tested within 7-10 days (or 2-3 days) of obtaining tissue. In embodiments, FIG. 12, organoids are prepared from a PDX biopsy 121 by collecting and digesting cells 122, seeding the cells in a 24 well plate 123, after incubation seeding cells from the 24 well plate in a 96 well plate 124 and screening drugs 125. […] Sensitivity to oxaliplatin at 100 nM, 1 μM, and 10 μM was tested on 8 organoids, CRC057, CRC119, CRC240, CRC16-159, CRC17-608, CRC18-347, CRC247 and CRC18-266, created using the above procedure. […] SN38 (7-ethyl-10-hydroxycamptothecin) was tested, rather than irinotecan, in organoids since irinotecan undergoes deesterification to SN-38 in vivo but not in vitro.

For a further test, the system named is CRC240 PDX. The description is as above. In kind it is in vivo, mice. The conditions noted are these: 10 mg/kg oxaliplatin or 20 mg/kg irinotecan weekly IP for three weeks.
Excerpt: as §5, §6

For a further test, the system named is CRC240 organoid. As to the kind of experiment: Organoid drug sensitivity assay (Cell Titer Glo). The conditions noted are these: SN38 tested rather than irinotecan in organoids. In kind it is cell-based, human. On the procedure: (§7) In embodiments, organoids are prepared by mincing a […] tissue sample into <2 mm^3 pieces. Samples are then digested in 5 mL of DMEMF-12+Penicillin Streptomycin+Rock inhibitor Y-27632 along with 20 μL of 0.25% Trypsin/EDTA for an hour with manual inversion every 10 minutes. After being spun down at 1500 RPM the pellet is washed with 5 mL of 10% FBS. During each of 3 washes the material is pipetted slowly about fifteen times. After each wash supernatant is collected and passed through a 70 μm cell strainer. Collected washes are spun down for five minutes at 1500 RPM and the pellet mixed with a 4:1 mixture of Matrigel®/PBS and plated. After the Matrigel® solidifies 1 mL of media is added to each well.
(§8) Collected matrigel is spun for 7 minutes at 1500 RPM. The pellet is collected and resuspended in 300 μL of PBS. 50 μL of this mixture is then mixed with 50 μL of a 1:1 mixture of matrigel/PBS. 5 μL of this mixture is then added to the center of each well in a 96 well plate and the plate incubated until the matrigel solidifies. […] After 90 μL of media is added and the plate is incubated at 37° C. for 24 hours, 5 μL of the tested drug is added to each well. Example concentrations, such as 100 nM, 1 μM and 10 μM concentrations, may be tested in triplicate. After the plate is incubated at 37° C. for 48 hours, 40 μL of Cell Titer Glo for organoids is added to each well to determine drug sensitivity.
as §6
A general note: Cellular ATP, detected with luciferase, serves as a proxy for viable cell number.

The next test concerns CRC119 organoid. As to the kind of experiment: Organoid drug sensitivity assay (Cell Titer Glo). In kind it is cell-based, human. The conditions noted are these: SN38 tested rather than irinotecan in organoids. Here is the method:
as §7, §8, §6

The test system of a further test is CRC057 PDX. The test can be described thus: PDX studies accompanying the organoid studies (tumor growth inhibition). In kind it is in vivo, mice. The conditions noted are these: 10 mg/kg oxaliplatin weekly IP for three weeks.
Excerpt: as §5, §6

For another test, the system named is 18-347 PDX. The test is described as above. In kind it is in vivo, mice. The conditions noted are these: 10 mg/kg oxaliplatin weekly IP for three weeks.
Excerpt: as §5, §6

For another test, the system named is CRC16-159 PDX. The description is as above. The conditions noted are these: 10 mg/kg oxaliplatin weekly IP for three weeks. In kind it is in vivo, mice.
Excerpt: as §5, §6

The test system of another test is CRC16-159 organoid. As to the kind of experiment: Organoid drug sensitivity assay (Cell Titer Glo). In kind it is cell-based, human. On the procedure:
as §7, §8, §6

A further test relates to CRC057 organoid. As to the kind of experiment: Organoid drug sensitivity assay (Cell Titer Glo). In kind it is cell-based, human. On the procedure: as §7, §8, §6
The next test concerns CRC18-347 organoid. As to the kind of experiment: Organoid drug sensitivity assay (Cell Titer Glo). In kind it is cell-based, human. On the procedure: as §7, §8, §6

Regarding `CCc1c2c(nc3ccc(O)cc13)-c1cc3c(c(=O)n1C2)COC(=O)[C@]3(O)CC` [SN38, 7-ethyl-10-hydroxycamptothecin], the half-inhibitory concentration (IC50) in the test on organoid A was 0.0116 µM; in the test with organoid B it was 43.9 µM; in the test with organoid C, 0.0326 µM.
Consider `CC(=O)O[C@@]12CO[C@@H]1C[C@H](O)[C@@]1(C)C(=O)[C@H](O)C3=C(C)[C@@H](OC(=O)[C@H](O)[C@@H](NC(=O)OC(C)(C)C)c4ccccc4)C[C@@](O)([C@@H](OC(=O)c4ccccc4)[C@H]21)C3(C)C` [docetaxel], for which the cells killed in the test on CRC247 was 25%; with CRC057, 47%; in the test on CRC119 it was 88%; in the test on CRC240, 46%.
In the same order, the values of `COc1cccc2c1C(=O)c1c(O)c3c(c(O)c1C2=O)C[C@@](O)(C(=O)CO)C[C@@H]3O[C@H]1C[C@H](N)[C@H](O)[C@H](C)O1` [doxorubicin] are 70%, 83%, 95% and 93%.
Consider `O=c1[nH]cc(F)c(=O)[nH]1` [fluorouracil], for which the 50% inhibitory concentration (IC50) is 3.96 µM with organoid A, 0.037 µM in the test with organoid B and 0.125 µM with organoid C.
As to `CCc1c2c(nc3ccc(OC(=O)N4CCC(N5CCCCC5)CC4)cc13)-c1cc3c(c(=O)n1C2)COC(=O)[C@]3(O)CC` [irinotecan], the cells killed was determined as 43% in the test with CRC119 and 64% in the test on 16-159. For the same compound, the “PDX sensitivity” value in the test with CRC119 PDX and in the test with CRC240 PDX was “sensitive” in each case. Besides, the “organoid sensitivity” value in the test on CRC240 organoid and in the test on CRC119 organoid was “sensitive” in each case.
`O=C1[O][Pt]2([NH][C@@H]3CCCC[C@H]3[NH]2)[O]C1=O` [oxaliplatin] displayed a cells killed in the test on CRC057 of 46%. Further, the “PDX sensitivity” value with CRC057 PDX is listed as “sensitive”; in the test on CRC119 PDX, “resistant”; in the test on 18-347 PDX, “sensitive”; in the test on CRC240 PDX, “resistant”; in the test with CRC16-159 PDX, “resistant”. In addition, the “organoid sensitivity” value in the test with CRC16-159 organoid is “resistant”; in the test with CRC057 organoid it was “sensitive”; in the test on CRC240 organoid it was “resistant”; in the test with CRC18-347 organoid (18-347 organoid) it was “sensitive”; in the test with CRC119 organoid, “resistant”; in the test on organoid A (Organoid A, from the IC50 data), “resistant”. In addition, the killing with CRC057 organoid (1 μM) was above 50%; with CRC18-347 organoid (CRC18-347 organoid, 1 μM), above 50%. Also, the figures for the half-inhibitory concentration (IC50) in the test on organoid A, in the test with organoid B and in the test on organoid C were 128 µM, 7.01 µM and 21.7 µM, respectively.
Turning to `CC[C@]1(O)C[C@H]2CN(CCc3c([nH]c4ccccc34)[C@@](C(=O)OC)(c3cc4c(cc3OC)N(C=O)[C@H]3[C@@](O)(C(=O)OC)[C@H](OC(C)=O)[C@]5(CC)C=CCN6CC[C@]43[C@@H]65)C2)C1` [vincristine], the cells killed was 37% in the test on CRC247, 46% in the test with CRC057, 88% in the test on CRC119 and 63% with CRC240.
The corresponding values for `CCC1=C[C@@H]2CN(C1)Cc1c([nH]c3ccccc13)[C@@](C(=O)OC)(c1cc3c(cc1OC)N(C)[C@H]1[C@@](O)(C(=O)OC)[C@H](OC(C)=O)[C@]4(CC)C=CCN5CC[C@]31[C@@H]54)C2` [vinorelbine] are 33%, 46%, 89% and 56%.
